These results are taken from the supplement of paper PMC10307832.

Common to all, as to experiment: relative viability (nuclei count vs DMSO), 5 days (fraction); higher = more cells survive
Compound in assay [1]: N=C1NC(=O)/C(=C/c2ccc(O)cc2)S1 [Mirin] + COc1cc2c(Oc3ccc(NC(=O)C4(C(=O)Nc5ccc(F)cc5)CC4)cc3F)ccnc2cc1OCCCN1CCOCC1 [Foretinib] (partner 0.25 µM)
In outline:
(§1)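 The day after seeding in 1536-well plates, lung cancer cell lines were treated by pin tool with a single drug, or with a fixed anchor-drug dose together with five library-drug doses (not always all listed) in √10 steps. After 5 days, a combined fix-and-stain solution (final 0.05% Triton X-100, 1% formaldehyde, 1 ug/ml Hoechst) was added. Nuclei counted on 4× images gave relative viability as treated counts over vehicle counts, reported as the median of duplicate plates.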

Compound in assay [2]: CCn1c(-c2nonc2N)nc2cnc(Oc3cccc(NC(=O)c4ccc(OCCN5CCOCC5)cc4)c3)cc21 + CS(=O)(=O)N1CCN(Cc2cc3nc(-c4cccc5[nH]ncc45)nc(N4CCOCC4)c3s2)CC1 [Pictilisib] (partner 1 µM)
In a few lines:
as §1

Compound in assay [3]: CCC1=CN=CN=C1N2CCN(CC2)CC3=NC4=C(N3)C=C(C=C4)C(F)(F)F + COc1cccc2cc(-c3nc([C@H]4CC[C@H](C(=O)O)CC4)n4ncnc(N)c34)[nH]c12 [OSI-027] (partner 0.5 µM)
In a few lines:
as §1

Compound in assay [4]: CCn1c(-c2nonc2N)nc2cnc(Oc3cccc(NC(=O)c4ccc(OCCN5CCOCC5)cc4)c3)cc21 + COc1cc2c(Oc3ccc(NC(=O)C4(C(=O)Nc5ccc(F)cc5)CC4)cc3F)ccnc2cc1OCCCN1CCOCC1 [Foretinib] (partner 0.25 µM)
In a few lines:
as §1

As to UMC-11, the relative viability in assay [1] (first compound 0.25 µM) was 1.03; in assay [1] (first compound 0.7906 µM) it was 1.05; in assay [1] (first compound 2.5 µM), 1; in assay [1] (first compound 7.906 µM), 0.918; in assay [1] (first compound 25 µM), 0.61; in assay [2] (first compound 0.04 µM), 0.908. Also, the relative viability in assay [2] (first compound 0.1265 µM) was 0.751; in assay [2] (first compound 0.4 µM) it was 0.464; in assay [2] (first compound 1.265 µM), 0.241; in assay [2] (first compound 4 µM) it was 0.188; in assay [3] (first compound 0.04 µM), 0.464; in assay [3] (first compound 0.1265 µM) it was 0.495. The relative viability in assay [3] (first compound 0.4 µM) is 0.417; in assay [3] (first compound 1.265 µM), 0.445; in assay [3] (first compound 4 µM) it was 0.406; in assay [4] (first compound 0.04 µM) it was 1.04; in assay [4] (first compound 0.1265 µM), 0.903; in assay [4] (first compound 0.4 µM) it was 0.68. The relative viability in assay [4] (first compound 1.265 µM) turned out to be 0.245; in assay [4] (first compound 4 µM) it was 0.186.
